Experimental data as given in patent publication US6306846A, “Anti-inflammatory and anti-ulcer compounds and process” (priority 1995, dated 2001).

Columns and labels:
[1] = Anti-inflammatory test models, overall statement; assay type: in vivo, rat; details: using only one test model
Source text: In order to test the anti-inflammatory activities of my copper coordination compounds, the following test models were employed:
(§1) (1) Carrageen in Foot Edema Model as described in Experentia, 6, pp. 469-71, "Zur Frage des Mechanis Mos der Hemmung des Bindegebswachstums durch Cortisone" (1950);
(2) Cotton Wad Granuloma Model as described in J. Pharmacol. Expt'l. Ther., 141, pp. 369-76, "Anti-inflammatory and Antipyretic Activities of Indomethacin, 9-(p-chlorobenzoyl)-5-Methoxy-2-Methyl-Indole-3-Acetic Acid" (1963); and
(3) Polyarthritis Model as described in Nature, 224, pp. 1320-21, "Effect of Prostaglandin E2 on Adjuvant Arthritis" (1969).

[2] = Carrageenin Foot Edema Model; assay type: in vivo, rat (male, Sprague Dawley); details: hydrocortisone comparison; model not given
Procedure: as §1
The foregoing literature references were followed in the following tests unless otherwise stated and they are incorporated by reference herein. Each test model will only be briefly described. Each test model is a recognized and accepted model for testing drugs for the treatment of arthritis.
In this test model test rats were injected with carrageenin in a hind paw one hour after administration of the copper coordination compound. The carrageenin induced inflammation. The rats were male, of the Sprague Dawley variety and weighed on the average 120 grams. The copper coordination compounds were first introduced subcutaneously. The dosages were compounded as follows:
The suspending agent was Tween 80, a nonionic surfactant sold by the Atlas Powder Company. A full description of it is contained at p. 648 of Remingtons Practice of Pharmacy (11th ed., Martin & Cook, The Mack Publishing Co., Easton Pa. 1956). Generally they may be described as a complex mixture of polyoxyethylene ethers of mixed oleic esters of sorbitol anhydrides. The initial screening dosage was 25 mg of the copper coordination compound given in one injection to ten rats. Compounds which were active received further testing at 5.0 mg and lower dosages. Each dosage was administered to at least ten rats. A dose was rated active if it caused a significant decrease (P<0.05) in the circumference of the feet injected with carrageenin six hours after administration. […] As a reference standard, saline solution plus suspending agent was subcutaneously administered to each of the ten rats.

[3] = in vivo; details: for TI CFE / TI PA / selectivity ratio: ratio of lethal dose to effective dose
Source text: In addition to the foregoing anti-inflammatory and anti-ulcer tests, several LD50 tests [performed in accordance with Miller et al, Proceed. of The Society of Expt'l. Medicine, 57, p.

Molecule	anti-inflammatory activity at the initial screening tests [1]	% potency compared with hydrocortisone [2]	LD50 ([3]; SC)	TI CFE ([3]; CFE (carrageenin foot edema))	TI PA ([3]; PA (polyarthritis))	also measured
N[C@@H](Cc1c[nH]c2ccccc12)C(=O)[O-].N[C@@H](Cc1c[nH]c2ccccc12)C(=O)[O-].[Cu+2] (racemic) [Example 16, Bis(D,L-tryptophanato(O,N)copper(II)]	no anti-inflammatory activity	–	–	–	–	–
NC(Cc1c[nH]c2ccccc12)C(=O)[O-].NC(Cc1c[nH]c2ccccc12)C(=O)[O-].[Cu+2] [Example 1, Bis-L-tryptophanato(O,N)copper(II)]	no anti-inflammatory activity	–	–	–	–	–
Nc1ccccc1C(=O)[O-].Nc1ccccc1C(=O)[O-].[Cu+2] [Example 3, Bisanthranilato(O,N)copper(II)]	–	60%	750 ± 106 mpk	150	750	–
CC(C)c1cc(C(=O)[O-])c(O)c(C(C)C)c1.CC(C)c1cc(C(=O)[O-])c(O)c(C(C)C)c1.[Cu+2] [Example 4]	–	50%	240 ± 33 mpk	48	240	–
CC(=O)Oc1ccccc1C(=O)[O-].CC(=O)Oc1ccccc1C(=O)[O-].CC(=O)Oc1ccccc1C(=O)[O-].CC(=O)Oc1ccccc1C(=O)[O-].[Cu+2].[Cu+2] [Example 5, Tetra(μ-acetylsalicylato)biscopper(II)]	–	130%	760 ± 100 mpk	150	760	–
CC(=O)Oc1ccccc1C(=O)O [aspirin, acetylsalicylic acid]	–	6%	–	–	–	LD50 ([3]; in vivo): 790 mg/kg; LD50 ([3]; in vivo, po): 1500 mg/kg
CC(=O)[O-].CC(=O)[O-].[Cu+2] [cupric acetate]	–	340%	350 mpk	70	0	–
O=C(O)c1cccnc1Nc1cccc(C(F)(F)F)c1 [tpan, 2[3(trifluoro-methyl)phenyl]aminonicotinic acid]	–	31%	–	–	–	selectivity ratio ([3]; in vivo, TI CFE, CFE (carrageenin foot edema)): 15; selectivity ratio ([3]; in vivo, TI PA, PA (polyarthritis)): 74; LD50 ([3]; in vivo, po): 370 ± 25 mg/kg
(3-p-chlorophenyl-3,4,5,6-tetrahydro-β-carboline-5-carboxylato)2n-(aqua)2n -copper(II)n [Example 30]	no anti-inflammatory activity	–	–	–	–	–
(17-Hydroxy-3-oxo-17α-pregn-4,6-diene-21-carboxalato)2n -(aqua)2n -copper(II)n [Example 41]	no anti-inflammatory activity	–	–	–	–	–
(D-penicillaminato)2n -(aqua)2n -copper(II)n [Example 8]	no anti-inflammatory activity	–	–	–	–	–
[2[3(trifluoromethyl)phenyl]aminonicotinato]2n -(aqua)n -copper(II)n [Example 6]	–	180%	650 ± 80 mpk	130	650	–
